System: LTB4 production in human blood
Test: Inhibition of Calcium Ionophore-Induced LTB4 Production in Human Blood (HWB)
Type: cell-based
Conditions: Homo sapiens, human whole blood, A23187 20 mcg/ml; read-out: Inhibition of Calcium Ionophore-Induced LTB4 Production in Human Blood IC50 HWB
Experimental: One or more concentrations of the leukotriene A4 hydrolass inhibitor compounds being tested were prepared (diluted in DMSO) and 2 μl added and gently mixed with the diluted whole blood. After incubating for 15 minutes at 37° C. in a humidified incubator, calcium ionophore A23187 (Sigma Chemical Co., St. Louis, Mo.) was added to a final concentration of 20 mcg/ml and the incubation continued under the same conditions for an additional 10 minutes to allow LTB4 formation. The reaction was terminated by centrifugation (833 g, 10 minutes at 4° C.) and supernatant were analyzed for LTB4 and thromboxane by commercially available enzyme-linked immunoassays (Caymen Chemical Co., Ann Arbor, Mich.) according to the manufacturer's instructions. The IC50 of each test compound was determined from the amount of inhibition of LTB4 production as compared to an essentially identical assay in which no inhibitor compound was present.

Structure (SMILES)	IC50
c1ccc(COc2ccc(OCCn3cccc4ncnc3-4)cc2)cc1 [Example 346C]	6690 nM
c1ccc(Oc2ccc(OCCn3cnc4cnccc43)cc2)cc1 [Example 349B]	320 nM
O=C(OCc1ccccc1)C1CCCN1CCCOc1ccc(Cc2ccccc2)cc1 (centres unmarked) [Example 258]	1440 nM
c1ccc(Cc2ccc(OCCCn3cnc4cccnc43)cc2)cc1 [Example 341A]	8900 nM
NC(=O)C1CCN(CCOc2ccc(Cc3cccc(F)c3)cc2)CC1 [Example 233]	490 nM
NC(=O)C1CCN(CCOc2ccc(Cc3ccsc3)cc2)CC1 [Example 230]	284 nM
NC(=O)C1CCN(CCOc2ccc(Cc3ccccc3)s2)CC1 [Example 369]	1530 nM
O=C(O)C1CCN(CCOc2ccc(Cc3ccccc3)s2)CC1 [Example 371]	650 nM
[O-][n+]1cccc2c1ncn2CCOc1ccc(Cc2ccccc2)cc1 [Example 363]	57 nM
C[C@H]1C[C@@H](O)CCN1CCOc1ccc(Cc2ccccc2)cc1 (relative stereo) [Example 465]	470 nM
c1ccc(Oc2ccc(OCCn3cnc4ccncc43)cc2)cc1 [Example 349A]	790 nM
O=C(O)[C@@H]1CCCN1CCCOc1ccc(Cc2ccccc2)cc1 [Example 430]	290 nM
c1ccc(Cc2ccc(OC(Cc3ccccc3)CN3CCCC3)cc2)cc1 (centres unmarked) [Example 406]	4000 nM
NC1CCN(CCOc2ccc(Cc3ccccc3)cc2)CC1 [Example 455]	180 nM
CCOC(=O)CC1CCN(CCOc2ccc(Cc3ccccc3)cc2)CC1 [Example 301]	828 nM
Clc1cccc(Cc2ccc(OCCN3CCCC3)cc2)c1 [Example 143]	290 nM
CCOC(=O)C1CCN(CCOc2ccc(Cc3cccc(F)c3)cc2)CC1 [Example 309]	1770 nM
NC(=O)C1CCN(CCOc2ccc(Cc3ccccc3)cn2)CC1 [Example 147]	730 nM
Fc1ccccc1COc1ccc(OCCN2CCCC2)cc1 [Example 207]	640 nM
CCOC(=O)C1C2CN(CCOc3ccc(Cc4ccccc4)cc3)CC21 (centres unmarked) [Example 325]	2400 nM
Clc1ccccc1COc1ccc(OCCN2CCCC2)cc1 [Example 208]	2150 nM
c1ccc2ncc(COc3ccc(OCCN4CCCC4)cc3)cc2c1 [Example 201]	1750 nM
NC(=O)C1CCN(CCOc2ccc(Oc3ccccc3)cc2)CC1 [Example 252]	127 nM

Structure (SMILES)	IC50
c1ccc(Oc2ccc(OCCCn3cccc4ncnc3-4)cc2)cc1 [Example 350C]	1670 nM
c1ccc(Oc2ccc(OCCCn3ccc4ncnc-4c3)cc2)cc1 [Example 351C]	360 nM
c1ccc(COc2ccc(OCCn3ccc4ncnc-4c3)cc2)cc1 [Example 347C]	380 nM
c1ccc(Cc2ccc(OCCNC3CCCC3)cc2)cc1 [Example 241]	630 nM
OC1CCN(CCOc2ccc(Cc3ccccc3)cc2)CC1 [Example 247]	200 nM
O=C(CCl)NC1CCN(CCOc2ccc(Cc3ccccc3)cc2)C1 (centres unmarked) [Example 454]	610 nM
NC(=O)CCNC(=O)C1CCN(CCOc2ccc(Cc3ccccc3)cc2)CC1 [Example 421]	800 nM
O=C(CCNCCCOc1ccc(Cc2ccccc2)cc1)N1CCOCC1 [Example 424]	850 nM
Fc1ccc(Oc2ccc(OCCn3cccc4ncnc3-4)cc2)cc1 [Example 354C]	1180 nM
Fc1ccc(Cc2ccc(OCCN3CCCC3)cc2)cc1 [Example 139]	580 nM
O=C(O)C1CCN(CCOc2ccc(Cc3cccc(F)c3)cc2)CC1 [Example 436]	550 nM
c1ccc(Oc2ccc(OCCn3cnc4ncccc43)cc2)cc1 [Example 348B]	560 nM
c1ccc2cc(COc3ccc(OCCN4CCCC4)cc3)ccc2c1 [Example 200]	1900 nM
CCOC(=O)CCNCCCCCOc1ccc(Cc2ccccc2)cc1 [Example 274]	1250 nM
C[C@@H]1C[C@H](C(N)=O)C[C@H](C)N1CCOc1ccc(Cc2ccccc2)cc1 [Example 316]	131 nM
NC(=O)CCNCCCOc1ccc(Cc2ccccc2)cc1 [Example 423]	700 nM
c1ccc(Cc2ccc(OCCCn3ccc4ncnc-4c3)cc2)cc1 [Example 356C]	340 nM
CNC(=O)C1CCN(CCOc2ccc(Oc3ccccc3)cc2)CC1 [Example 255]	608 nM
CC(CN(C)CCCOc1ccc(Cc2ccccc2)cc1)C(=O)O (centres unmarked) [Example 432]	630 nM
NC(=O)C1CCN(CC2Cc3cc(Cc4ccccc4)cnc3O2)CC1 (centres unmarked) [Example 288]	960 nM
c1ccc(Cc2ccc3c(c2)CC(Cn2cccc4ncnc2-4)O3)cc1 (centres unmarked) [Example 359C]	4200 nM
NC(=O)C1CCCN(CCOc2ccc(Oc3ccccc3)cc2)C1 (centres unmarked) [Example 253]	490 nM
CC(=O)N1CCN(CC2Cc3cc(Cc4ccccc4)ccc3O2)CC1 (centres unmarked) [Example 294]	340 nM

Structure (SMILES)	IC50
c1ccc(Oc2ccc(OCCCn3cnc4cnccc43)cc2)cc1 [Example 351B]	2050 nM
CCOC(=O)CC1CCN(CCOc2ccc(Oc3ccccc3)cc2)CC1 [Example 300]	2510 nM
c1ccc2c(COc3ccc(OCCN4CCCC4)cc3)cccc2c1 [Example 214]	10000 nM
Fc1ccc(Oc2ccc(OCCn3cnc4ccncc43)cc2)cc1 [Example 355A]	2230 nM
c1ccc(Oc2ccc(OCCn3ccc4ncnc-4c3)cc2)cc1 [Example 349C]	200 nM
COc1ccc(Cc2ccc(OCCN3CCC(C(N)=O)CC3)cc2)cc1 [Example 232]	10000 nM
COC(=O)C1CC2CC1CN(CCOc1ccc(Cc3ccccc3)cc1)C2 (centres unmarked) [Example 504]	7700 nM
Cc1ccc(COc2ccc(OCCN3CCCC3)cc2)cc1 [Example 212]	3280 nM
Oc1ccc(Cc2ccc(OCCN3CCCC3)cc2)cc1 [Example 137]	80 nM
NNC(=O)C1CCN(CCOc2ccc(Cc3ccccc3)cc2)CC1 [Example 419]	120 nM
CNC(=O)C1CCN(CC2Cc3cc(Cc4ccccc4)ccc3O2)CC1 (centres unmarked) [Example 295]	604 nM
CCOC(=O)CC1CCN(CCCOc2ccc(Cc3ccccc3)cc2)CC1 [Example 302]	2400 nM
COc1ccc(COc2ccc(OCCN3CCCC3)cc2)cc1 [Example 213]	4650 nM
c1ccc(Oc2ccc(OCCCn3cnc4cccnc43)cc2)cc1 [Example 350A]	13600 nM
c1ccc(Oc2ccc(OCCn3cnc4ccccc43)cc2)cc1 [Example 344]	13500 nM
O=C(O)C1CCN(CCOc2ccc(Cc3cccs3)cc2)CC1 [Example 437]	693 nM
O=C(CCNCCCCOc1ccc(Cc2ccccc2)cc1)OCc1ccccc1 [Example 273]	154 nM
c1ccc(Cc2cnc3c(c2)CC(CN2CCCC2)O3)cc1 (centres unmarked) [Example 287]	2390 nM
Fc1cccc(COc2ccc(OCCN3CCCC3)cc2)c1 [Example 211]	620 nM
NC(=O)C1(O)CCN(CCOc2ccc(Cc3ccccc3)cc2)CC1 [Example 427]	532 nM
c1ccc(Cc2ccc3c(c2)CC(Cn2cnc4ccncc42)O3)cc1 (centres unmarked) [Example 358A]	152 nM
Fc1ccc(Oc2ccc(OCCn3cnc4ncccc43)cc2)cc1 [Example 354B]	600 nM
Fc1cccc(Cc2ccc(OCCN3CCCC3)cc2)c1 [Example 142]	100 nM

Structure (SMILES)	IC50
O=C(CCNCCOc1ccc(Cc2ccccc2)cc1)OCc1ccccc1 [Example 266]	2640 nM
CNC(=O)CCNCCCOc1ccc(Cc2ccccc2)cc1 [Example 422]	660 nM
CCOC(=O)C1CCCN(CCCOc2ccc(Cc3ccccc3)cc2)C1 (centres unmarked) [Example 269]	1180 nM
CC(CN1CCCCCC1)Oc1ccc(Cc2ccccc2)cc1 (centres unmarked) [Example 404]	2750 nM
Fc1ccc(Oc2ccc(OCCn3cnc4cnccc43)cc2)cc1 [Example 355B]	910 nM
c1ccc(Oc2ccc(OCCCn3cnc4ccncc43)cc2)cc1 [Example 351A]	2720 nM
c1ccc(Oc2ccc(OCCn3cnc4cccnc43)cc2)cc1 [Example 348A]	5700 nM
Fc1ccc(COc2ccc(OCCN3CCCC3)cc2)cc1 [Example 205]	1150 nM
c1ccc2ncc(Cc3ccc(OCCN4CCCC4)cc3)cc2c1 [Example 132]	500 nM
c1ccc(Oc2ccc(OCCn3cccc4ncnc3-4)cc2)cc1 [Example 348C]	540 nM
COC(=O)C1CN(CCCOc2ccc(Cc3ccccc3)cc2)CCC1=O (centres unmarked) [Example 262]	2480 nM
NC(=O)C1CCN(CCOc2ccc(Cc3cccs3)cc2)CC1 [Example 229]	220 nM
O=c1[nH]c(C2CCN(CCOc3ccc(Cc4ccccc4)cc3)CC2)no1 [Example 448]	825 nM
C#CC(CC(=O)OCC)NCCCOc1ccc(Cc2ccccc2)cc1 (centres unmarked) [Example 407]	707 nM
CCOC(=O)CCNC(=O)C1CCN(CCOc2ccc(Cc3ccccc3)cc2)CC1 [Example 249]	429 nM
c1csc(Cc2ccc(OCCN3CCCC3)cc2)c1 [Example 133]	43 nM
CC(=O)N[C@@H]1CCN(CCOc2ccc(Cc3ccccc3)cc2)[C@@H](C)C1 (relative stereo) [Example 467]	226 nM
CC(C)(C)OC(=O)C1CCN(CCCOc2ccc(Cc3ccccc3)cc2)CC1 [Example 263]	8760 nM
c1ccc(Oc2ccc(OCCN3CCCC3)nc2)cc1 [Example 65]	510 nM
N=C(N)C1CCN(CCOc2ccc(Cc3ccccc3)cc2)CC1 [Example 449]	913 nM
CC(C)(O)CCNCCCOc1ccc(Cc2ccccc2)cc1 [Example 416]	1970 nM
NC(=O)C1CCCN(CCOc2ccc(Cc3ccccc3)cc2)C1 (centres unmarked) [Example 243]	650 nM
CCOC(=O)C1CCN(CC2Cc3cc(Oc4ccccc4)ccc3O2)CC1 (centres unmarked) [Example 291]	1850 nM

From patent US5585492A, “LTA4 Hydrolase inhibitors” (priority 1994, dated 1996)
